This passage reports GI50 results from PMC10096391, “Discovery of N,4-Di(1H-pyrazol-4-yl)pyrimidin-2-amine-Derived CDK2 Inhibitors as Potential Anticancer Agents: Design, Synthesis, and Evaluation” (Molecules, 2023).

SMILES strings stand for the structures.

What all share (assay type): cell-based
Experiment [1] relates to U251 glioblastoma cells. Kind of experiment: Cell viability assay (MTT/resazurin), U251. The following applies: Homo sapiens, U-251, read-out: Antiproliferative Activity, GI50. From the text:
(§1) Cancer cell lines derived from leukemia (MV4-11 and U937), breast (MCF7 (Rb-positive) and MDA-MB-231(Rb-negative)), and ovarian (A2780, OVCAR5, OAW28, OV90, Cov318, and Cov504) cancers, and glioblastoma (U87, T98G and U251) were acquired from the cell bank at Drug Discovery and Development, University of South Australia, and cultured according to the American Type Culture Collection (ATCC) recommendation in Roswell Park Memorial Institute (RPMI)-1640, Dulbecco’s Modified Eagle’s Medium (DMEM), or Minimum Essential Media (MEM), with 10% fetal bovine serum (Sigma-Aldrich, Castle Hill, NSW, Australia) within a humidified incubator at 37 °C in the presence of 5% CO2.
(§2) The MTT (Life Technologies, Mulgrave, VIC, Australia) and resazurin (Sigma-Aldrich) assays were used to determine the antiproliferative activities of the compounds initially at 1 µM against the cancer cell lines stated above.
(In general: Alamar Blue is a resazurin reagent that responds to reducing activity.)

For experiment [2], the system named is MV4-11 leukemia cells. Kind of experiment: Cell viability assay (MTT/resazurin), MV4-11. The following applies: Homo sapiens, read-out: Antiproliferative Activity, GI50.
Excerpt: as §1, §2

The subject of experiment [3] is U87 glioblastoma cells. Kind of experiment: Cell viability assay (MTT/resazurin), U87. The following applies: read-out: Antiproliferative Activity, GI50.
Excerpt: as §1, §2

The subject of experiment [4] is Cov318 ovarian cancer cells. Kind of experiment: Cell viability assay (MTT/resazurin), Cov318. The following applies: read-out: Antiproliferative Activity, GI50.
Excerpt: as §1, §2

Regarding `Cn1cc(-c2nc(Nc3cn[nH]c3)ncc2Cl)cn1` [Compound 15, 5-Chloro-4-(1-methyl-1H-pyrazol-4-yl)-N-(1H-pyrazol-4-yl)pyrimidin-2-amine], the GI50 (commonly the concentration giving 50% growth inhibition) in experiment [1] was 350 nM; in experiment [2], 127 nM; in experiment [3], 560 nM; in experiment [4], 488 nM.
